Columns and labels:
P. falciparum 3D7-A10 = assay: Blood-stage dose-response assay (SYBR Green I, 72 hr), 3D7 / 3D7-A10 parent; type: cell-based; details: Plasmodium falciparum, mean ± SD, n bioreplicates, read-out: 3D7-A10 parent EC50 ± SD
Experimental: (§1) The 3D7-A10 clone has been used in previous in vitro drug selection and sequencing efforts ([Cowell et al., 2018]). Dd2 parasites were obtained from T. Wellems (NIAID, NIH). Dd2-B2 is a genetically homogeneous line that was cloned from Dd2 by limiting dilution in the Fidock lab. Parasite strains were cultured in 3-5% human O+ hematocrit in RPMI 1640 (Life Technologies) supplemented with 28 mM NaHCO3, 25 mM HEPES, and hypoxanthine ([…]). Depending on the parasite line, the media either contained gentamycin (25 μg/mL), or no antibiotic and was additionally supplemented with 0.5% AlbuMAX II (Life Technologies) and/or O+ human serum (heat inactivated and pooled). Blood and serum products were obtained from Interstate Blood Bank. Cultures were maintained at 37°C in 1.1% O2, 4% CO2, and 95% N2. Parasite populations were synchronized by 5% sorbitol treatment ([Lambros and Vanderberg, 1979]).
(§2) For in vitro–selected lines, drug susceptibility was measured by SYBR Green I–based assay ([Johnson et al., 2007]; [Smilkstein et al., 2004]). Ring-stage parasites were cultured for 72 hr at 1% hematocrit and 1% starting parasitemia in 384-well black clear-bottom plates containing test compounds plated in triplicate in 12-point serial dilutions. Lysis buffer (0.16% w/v saponin, 1.6% Triton X-100, 5 mM EDTA, and 20 mM Tris-HCl, pH 7.4) with SYBR Green I fluorescent dye (Invitrogen) was added, and fluorescence readings were taken (excitation at 494 nm, emission at 530 nm). Alternatively, Dd2-B2 ring-stage cultures at 0.3% parasitemia and 1% hematocrit were exposed for 72 hr to a range of ten drug concentrations that were 2-fold serially diluted in duplicates along with drug-free controls. Parasite survival was assessed by flow cytometry on an Accuri C6 (BD Biosciences) using SYBR Green and MitoTracker Deep Red FM (Life Technologies) as nucleic acid stain and vital dyes respectively. EC50 values were calculated using a nonlinear regression curve fit in Prism Software version 8 (GraphPad).

P. falciparum Dd2-B2 = assay: Blood-stage dose-response assay (72 hr), Dd2 / Dd2-B2 parent; type: cell-based; details: Plasmodium falciparum, DD2, read-out: Dd2-B2 parent EC50 ± SD (nM)
Experimental: as §1, §2

[1] = tested on: P. falciparum Dd2:A597V (CRISPR edited PfAcAS); assay: Blood-stage dose-response assay, CRISPR-edited Dd2:A597V line; type: cell-based; details: Plasmodium falciparum, mean ± SD, n bioreplicates
Experimental: as §2
(§3) Mutant PfAcAS-A597V and PfAcAS-T648M parasites were generated using CRISPR/Cas9. The guide RNAs for PfAcAS-A597V (5′-[…]-3′; 5′-[…]-3′) and for PfAcAS-T648M (5′-[…]-3′) were designed using Benchling (https://benchling.com/) to targeting sites in PfAcAS that were 6-14 bp upstream of the A597 codon and 6 bp downstream of the T648 codon respectively. Complementary oligos encoding the gRNA sequences (5′- tatt[…]-3’ / 5’-aaac[…]-3’; 5’-tatt[…]-3’ / 5’-aaac[…]-3’ and 5’- tattg[…]-3’ / 5’-aaac[…]c-3’ ) were phosphorylated using T4 polynucleotide kinase and annealed (95°C for 5 min, then step down of 5°C/min to 25°C) prior to ligation into the BbsI-digested pDC2-coCas9-U6.2-hDHFR plasmid ([Lim et al., 2016]). The donor template for PfAcAS-A597V was synthesized (ThermoFisher) as a 700 bp Genestring fragment spanning position 1468 to 2168 of the PfAcAS gene, and the donor for PfAcAS-T648M synthesized as a 829 bp fragment spanning position 1468 to 2297 and inserted into the AatII/EcoRI sites of the pDC2-coCas9-gRNA-hDHFR plasmid by Gibson assembly. Ring-stage parasites (Dd2) at 5% parasitemia were transfected by electroporation (BioRad Gene Pulser II at 0.310 kV and 950 μF) with 50 μg of each plasmid (plasmid 1: pDC2-coCas9-AcAS-A597V-gRNA1-hDHFR, plasmid 2: pDC2-coCas9-gRNA2-hDHFR, or plasmid 3: pDC2-coCas9-AcAS-T648M-gRNA1-hDHFR), and parasites selected for 10 days with 2.5 nM WR99210 (Jacobus Pharmaceuticals), followed by removal of drug pressure. After confirmation of editing in the bulk culture, clones were isolated by serial limiting dilution and confirmed by Sanger sequencing after PCR amplification from genomic DNA using forward primer 5′-[…]-3′ and reverse primer 5′-[…]-3′ (for A597V) and 5′-[…]-3′ (for T648M).

[2] = tested on: P. falciparum Dd2:T648M (CRISPR edited PfAcAS); assay: Blood-stage dose-response assay, CRISPR-edited Dd2:T648M line; type: cell-based; details: Plasmodium falciparum, mean ± SD, n bioreplicates
Experimental: as §2, §3

PfAcAS WT = PfAcAS WT (Plasmodium falciparum, UniProt C6KTB4); assay: EnzChek assay, recombinant PfAcAS WT (steady-state kinetics and IC50); type: biochemical, P. falciparum; details: substrate varied, other two saturating
Experimental: (§4) Steady-state kinetic measurements were conducted at room temperature using a PheraStar plate reader (BMG). The first step of the reaction of PfAcAS, which produces inorganic pyrophosphate (PPi) that is converted to two molecules of inorganic phosphate using a pyrophosphatase enzyme, was continuously monitored using the EnzChek Phosphate Assay Kit, which gives an absorbance readout at 360 nm (Figure 4A) ([Webb, 1992]). […] By adding CoA, the reaction rapidly proceeds to the second step resulting in further release of pyrophosphate, making the EnzChek assay a suitable option to continuously monitor the activity of PfAcAS. Typical kinetic assays were carried out in clear, flat-bottom, polystyrene, 384-well plates (Greiner) in an 80 μL reaction volume containing 100 mM HEPES (pH7.4), 100 mM NaCl, 250 mM KCl, 50 mM MgCl2, 1 mM DTT, 0.004% Tween 20, 0.5 U/mL pyrophosphatase, 0.1 mM MESG, 0.5 U/mL PNP, 2 mM ATP, 2 mM acetate, 0.5 mM CoA and 5 nM recombinant PfAcAS WT or 10 nM recombinant PfAcAS A597V or T648M. Assays were performed by adding 40 μL of a 2-times concentrated substrate mixture including MESG to all wells, and the reactions started by adding 40 μL of a 2-times concentrated reaction mixture containing all other components. The reactions were carried out for 2 to 4 hr with absorbance readings at 360 nm every two to four minutes. Reaction rates were extracted from the linear phase of activity, usually using 10 to 20 points between times of 30 and 100 min of the reactions. Using a phosphate standard curve obtained under the same buffer conditions used for the PfAcAS reactions (Figure S5A), the rates were then converted to velocity per second, conversion of one nanomolar of phosphate, per nanomolar of enzyme, per second. The substrates Km values were determined by varying the concentration of one of the substrates at saturating concentration of the other two substrates. Steady-state data were fitted using the nonlinear, least-squares, curve-fitting programs of Sigma-Plot for Windows, version 14.0. Individual saturation curves were fit to Equation 1(Equation 1) v=VS/K+S where V is the maximal velocity, S is the substrate concentration and K is the Michaelis constant for the substrate (Km). Individual saturation curves displaying substrate inhibition were fit to Equation 2(Equation 2) v=VS/K+S×(1+S/Ks) where Ks is the substrate inhibition constant.
(§5) To determine the steady-state inhibition parameters and patterns associated with both inhibitors, PfAcAS activity was studied in the presence of variable concentrations of one substrate, ATP, acetate or CoA, fixed saturating concentration of the other two substrates (acetate and CoA, ATP and CoA, or ATP and acetate) and several fixed concentrations of inhibitor. Assay ready plates containing different concentrations of inhibitor were prepared using an Echo 550 acoustic dispenser (Labcyte Inc.). The assays were carried out as described in the previous section. […] For better comparison between both inhibitors and proteins, the ymin was fixed to zero and the ymax to 100. Inhibition data showing linear, competitive patterns in double-reciprocal plots were fit to Equation 4(Equation 4) v=VS/K(1+I/Ki)+S where Ki is the dissociation constant for the enzyme-inhibitor complex. Inhibition data showing linear, mixed inhibition patterns in double-reciprocal plots were fit to Equation 5(Equation 5) v=VS/K(1+I/Kis)+S(1+I/Kii) where Kis is the dissociation constant for the free enzyme-inhibitor complex and Kii is the dissociation constant for the enzyme-substrate-inhibitor complex. Inhibition data showing linear, uncompetitive patterns in double-reciprocal plots were fit to Equation 6(Equation 6) v=VS/K+S(1+I/Ki)

PfAcAS T648M = molecular target: T1, PfAcAS T648M (Plasmodium falciparum, UniProt C6KTB4, T648M); assay: EnzChek assay, recombinant PfAcAS T648M; type: biochemical, P. falciparum; details: substrate varied, other two saturating
T1 sequence (C6KTB4 1-997 T648M): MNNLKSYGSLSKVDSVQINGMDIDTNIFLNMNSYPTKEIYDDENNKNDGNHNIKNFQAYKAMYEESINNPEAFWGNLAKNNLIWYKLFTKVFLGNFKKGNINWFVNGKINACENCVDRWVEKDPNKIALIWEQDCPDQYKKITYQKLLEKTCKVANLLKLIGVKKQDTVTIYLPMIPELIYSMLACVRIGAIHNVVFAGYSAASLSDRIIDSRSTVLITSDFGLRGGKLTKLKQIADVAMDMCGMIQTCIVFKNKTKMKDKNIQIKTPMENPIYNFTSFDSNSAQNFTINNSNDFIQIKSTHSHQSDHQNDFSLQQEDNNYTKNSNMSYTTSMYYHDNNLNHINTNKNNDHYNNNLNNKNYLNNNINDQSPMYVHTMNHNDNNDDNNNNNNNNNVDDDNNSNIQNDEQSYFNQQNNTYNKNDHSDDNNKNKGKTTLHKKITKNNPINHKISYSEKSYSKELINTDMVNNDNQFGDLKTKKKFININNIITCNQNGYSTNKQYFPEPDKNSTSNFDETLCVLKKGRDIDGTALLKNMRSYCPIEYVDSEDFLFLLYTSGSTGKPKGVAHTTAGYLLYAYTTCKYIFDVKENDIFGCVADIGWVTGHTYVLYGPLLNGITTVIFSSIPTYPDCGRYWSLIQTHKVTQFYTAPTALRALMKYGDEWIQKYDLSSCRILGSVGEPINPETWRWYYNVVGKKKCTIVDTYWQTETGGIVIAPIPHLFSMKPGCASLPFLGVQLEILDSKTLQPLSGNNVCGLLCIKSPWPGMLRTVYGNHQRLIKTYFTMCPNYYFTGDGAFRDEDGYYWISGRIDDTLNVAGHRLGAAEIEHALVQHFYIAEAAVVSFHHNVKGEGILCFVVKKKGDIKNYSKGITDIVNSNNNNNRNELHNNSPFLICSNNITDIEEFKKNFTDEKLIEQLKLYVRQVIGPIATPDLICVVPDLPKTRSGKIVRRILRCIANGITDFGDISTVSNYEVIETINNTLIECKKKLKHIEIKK
Experimental: as §4, §5

PfAcAS A597V = molecular target: T2, PfAcAS A597V (Plasmodium falciparum, UniProt C6KTB4, A597V); assay: EnzChek assay, recombinant PfAcAS A597V; type: biochemical, P. falciparum; details: substrate varied, other two saturating
T2 sequence (C6KTB4 1-997 A597V): T1 sequence (C6KTB4 1-997 T648M)
Experimental: as §4, §5

HsAcAS WT = molecular target: T3, HsAcAS WT (Homo sapiens, UniProt Q9NR19); assay: HsAcAS Rapid-Fire QQQ mass spectrometry assay; type: biochemical; details: read-out: Km (µM), HsWT
T3 construct: made in house; host or cells: Expi293 cells (pCDNA 3.1, transient transfection)
Experimental: The human form of acetyl-CoA synthetase was assayed in 100 mM HEPES (pH7.4), 100 mM NaCl, 250 mM KCl, 50 mM MgCl2, 1 mM DTT, 0.005% NP40, 400 μM ATP, 70 μM acetate, 40 μM CoA and 2 nM recombinant HsAcAS. Assay ready plates containing different concentrations of inhibitor were prepared using an Echo 550 acoustic dispenser (Labcyte Inc.), dispensing 150 nL of compound per well. Assays were conducted in a total volume of 15 μL for 30 min at room temperature before being quenched with the addition of 85 μL 1% formic acid containing 0.5 μg/mL n-Propionyl coenzyme A (Sigma P5397) as an internal standard. Reaction products were detected using a RapidFire 365 system (Agilent, Santa Clara, CA) coupled with a triple quadrupole mass spectrometer 6740 (Agilent).
The sipper was washed to minimize carryover with 0.1% TFA in deionized water followed by 0.1% TFA in acetonitrile/deionized water (95%/5%, v/v). The sipper was washed to minimize carryover with deionized water followed by acetonitrile. Aspiration time, load/wash time, elution time, and re-equilibration time were set to 600, 3000, 5000, and 500 ms, respectively, with a cycle time of approximately 10 s. The triple-quadrupole mass spectrometer with electrospray ion source was operated in positive multiple reaction monitoring (MRM) mode. The detailed setting for the mass spectrometer parameters was as follows: capillary voltage, 3000 V; gas temperature, 350°C; gas flow, 7 L/min; nebulizer, 40 psi; sheath gas temperature, 300°C′ sheath gas flow, 11 L/min; and nozzle voltage, 1500 V. The MRM transitions for acetyl-CoA as a reaction product were set as 810.1/303.1 & 810.1/428.1 (quantifier & qualifier with dwell time of 50 ms, 100V fragmentor, and collision energies of 30 & 28 eV respectively) and for n-propionyl-CoA as an internal standard as 824.2/317.2 & 824.2/428.0 (quantifier & qualifier with dwell time of 50 ms, 100V fragmentor, and collision energies of 32 & 26 eV respectively). The mass resolution window for both parental and daughter ions was set at as a unit (0.7 Da). Peak areas were integrated, and area ratios of acetyl-CoA to the internal standard (n-propionyl CoA) were used for quantitation. Data were converted to % inhibition relative to the uninhibited enzyme control and fitted to Equation 3.

T3 sequence (Q9NR19 whole entry): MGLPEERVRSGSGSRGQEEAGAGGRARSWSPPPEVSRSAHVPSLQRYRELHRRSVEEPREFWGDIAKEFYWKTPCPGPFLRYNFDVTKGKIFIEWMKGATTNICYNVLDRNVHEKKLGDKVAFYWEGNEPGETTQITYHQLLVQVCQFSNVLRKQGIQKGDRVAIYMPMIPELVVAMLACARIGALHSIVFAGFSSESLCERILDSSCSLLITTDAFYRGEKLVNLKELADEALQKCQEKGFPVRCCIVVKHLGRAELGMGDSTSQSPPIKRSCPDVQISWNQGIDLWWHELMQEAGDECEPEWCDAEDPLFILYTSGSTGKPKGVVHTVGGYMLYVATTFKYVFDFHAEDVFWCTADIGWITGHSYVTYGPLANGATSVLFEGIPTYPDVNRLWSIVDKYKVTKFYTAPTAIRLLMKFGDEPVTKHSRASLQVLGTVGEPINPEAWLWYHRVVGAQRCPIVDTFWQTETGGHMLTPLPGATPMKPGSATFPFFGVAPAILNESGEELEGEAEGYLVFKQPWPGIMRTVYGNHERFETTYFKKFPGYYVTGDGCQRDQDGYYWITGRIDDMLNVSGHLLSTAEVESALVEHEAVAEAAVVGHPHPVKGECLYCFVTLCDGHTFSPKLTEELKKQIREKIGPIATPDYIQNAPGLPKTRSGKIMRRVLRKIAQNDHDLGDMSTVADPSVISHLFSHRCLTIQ

C[C@H]1[C@@H](O)O[C@@H]2O[C@@]3(C)CC[C@H]4[C@H](C)CC[C@@H]1[C@@]24OO3 [Dihydroartemisinin]
EC50 (P. falciparum 3D7-A10): 2.6 ± 1.6 nM | EC50 (P. falciparum Dd2-B2): 4.6 ± 3 nM | EC50 [1]: 5.6 ± 3.5 nM | EC50 [2]: 3.7 ± 3 nM

CC(=O)O [acetate]
Km (PfAcAS WT): 72 µM | Km (PfAcAS T648M): 190 ± 8 µM | Km (PfAcAS A597V): 400 ± 12 µM | Vmax (s-1), PfAcAS A597V (PfAcAS A597V): 0.54 ± 0.05 s⁻¹ | Km (HsAcAS WT): 61 ± 4 µM

— PMC8878317, “Chemogenomics identifies acetyl-coenzyme A synthetase as a target for malaria treatment and prevention” (Cell Chemical Biology, 2022)
